Results: patent US20040198743A1 (Schering Corporation, priority 2003, published 2004)
Values joined by “and” are separate entries in the source; they are usually repeats but may differ in a detail not shown here. Equal values may be shown once.

Legend:
[1] = tested on: cutaneous microvascular permeability produced by compound 48/80; assay: Cutaneous microvascular permeability (Evans blue extravasation) elicited by intradermal compound 48/80; type: in vivo, guinea pig; details: for effect on baseline Evans blue leakage (dye leakage due to i.d. saline administration): CTM 1.0 mg/kg, THIO 1.0 mg/kg, CLOB 0.3 mg/kg, i.v.; for % Inhibition of Compound 48/80 Skin Responses: treatment i.v. 10 minutes before, each drug 1 mg/kg in Table 3, mean ± SEM; for effect of H3 antagonist alone on cutaneous permeability elicited by compound 48/80: THIO 1.0 mg/kg i.v., CLOB 0.3 mg/kg i.v., given alone
Histamine Receptor H3 = molecular target: T1, Histamine Receptor H3 (Homo sapiens, UniProt Q9Y5N1); assay: Membrane binding assay, [3H]-N'-methylhistamine for H3 binding
T1 construct: expressed in transfected cells; host or cells: HEK293
T1 sequence (Q9Y5N1 whole entry): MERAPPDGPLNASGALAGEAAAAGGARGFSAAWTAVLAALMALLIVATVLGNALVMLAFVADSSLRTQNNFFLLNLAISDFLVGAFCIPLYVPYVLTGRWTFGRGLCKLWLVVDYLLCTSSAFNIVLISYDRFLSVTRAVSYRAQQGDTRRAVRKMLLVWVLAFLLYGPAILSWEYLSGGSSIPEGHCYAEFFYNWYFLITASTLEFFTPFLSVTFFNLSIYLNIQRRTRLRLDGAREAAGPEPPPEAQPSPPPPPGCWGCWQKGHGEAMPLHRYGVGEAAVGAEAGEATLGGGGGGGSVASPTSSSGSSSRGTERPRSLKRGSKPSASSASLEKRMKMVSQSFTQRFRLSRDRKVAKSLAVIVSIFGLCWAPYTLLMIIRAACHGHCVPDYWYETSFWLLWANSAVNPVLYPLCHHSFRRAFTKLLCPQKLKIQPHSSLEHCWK
Description: (§1) Materials. Rat and guinea-pig brains were obtained frozen from Rockland Immunochemicals (Gilbertsville, Pa.). Cell lines expressing recombinant human receptors were generated by using standard transfection techniques. The following radioligands were obtained from Dupont NEN (Boston, Mass.): [^3H]-pyrilamine, 23 Ci/mmol for H 1 binding and [^3H]-N′-methylhistamine, 82 Ci/mmol for H3 binding.
(§2) Methods. Recombinant cell lines (i.e., human H1—CHO cells and human H3-HEK293) were cultured in Dulbecco's modified Eagle's medium/10% fetal bovine serum supplemented with 2 mM glutamine, penicillin (100 U/ml), and streptomycin (100 μg/ml) in a humidified 5% CO2 atmosphere at 37° C. Selection was maintained with 0.5 mg geneticin/ml. Cells were harvested for membrane preparation by aspirating media, replacing it with Hanks' balanced salt solution/5 mM EDTA, and incubating flasks for 10 minutes at 37° C. Cells were pelleted by centrifugation at 1000×g for ten minutes at 4° C.
(§3) Membrane preparation. Membranes were prepared by disrupting cells or tissue in at least ten volumes of ice-cold 50 mM Tris-HCl, pH 7.5 at 25° C., with a Polytron. Homogenates were centrifuged ten minutes at 1000×g and the supernatants were then centrifuged for ten minutes at 50,000×g. Pellets from this centrifugation step were resuspended with a Polytron, a sample was taken for protein determination (BCA; Pierce; Rockford, Ill.), and the resuspension was again centrifuged at 50,000×g. Brain membranes were stored as pellets, cell membranes as suspensions of 1 mg protein/ml Tris buffer at −20° C.
(§4) Binding assays. […] Nonspecific binding was determined in the presence of 10^−6 M chlorpheniramine for H1 binding or 10^−6 M clobenpropit for H3 binding. Assay mixtures were incubated for 30 minutes at 30° C. in polypropylene, 96-well, deep-well plates then filtered through 0.3% polyethylenimine-soaked GF/B filters. These were washed three times with 1.2 ml of Tris buffer, dried in a microwave oven, impregnated with Meltilex wax scintillant and counted at 40% efficiency in a Betaplate scintillation counter (Wallac). IC50 values were determined by interpolation or by nonlinear, least-squares, curve-fitting with the Prism program (GraphPad Software). Ki values were determined in the manner of Cheng and prusoff (Cheng, et al., (1973) Biochem. Pharm. 22:3099-3108).

Histamine Receptor H1 = molecular target: T2, Histamine Receptor H1 (Homo sapiens, UniProt P35367); assay: Membrane binding assay, [3H]-pyrilamine for H1 binding
T2 construct: expressed in transfected cells; host or cells: CHO
T2 sequence (P35367 whole entry): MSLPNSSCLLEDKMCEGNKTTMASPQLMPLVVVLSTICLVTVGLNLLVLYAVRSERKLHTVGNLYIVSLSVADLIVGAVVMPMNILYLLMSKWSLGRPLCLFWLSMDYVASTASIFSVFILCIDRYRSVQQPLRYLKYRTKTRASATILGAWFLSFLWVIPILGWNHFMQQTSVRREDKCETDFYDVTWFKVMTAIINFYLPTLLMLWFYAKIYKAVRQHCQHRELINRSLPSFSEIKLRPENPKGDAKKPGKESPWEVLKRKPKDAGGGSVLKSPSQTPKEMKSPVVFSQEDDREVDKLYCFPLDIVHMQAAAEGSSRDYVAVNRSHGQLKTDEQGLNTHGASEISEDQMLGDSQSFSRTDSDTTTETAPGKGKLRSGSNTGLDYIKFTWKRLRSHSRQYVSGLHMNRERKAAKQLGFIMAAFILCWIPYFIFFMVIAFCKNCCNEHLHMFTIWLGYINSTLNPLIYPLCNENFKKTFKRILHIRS
Description: as §1, §2, §3, §4

| SMILES | Ki (Histamine Receptor H3) [nM] | Ki (Histamine Receptor H1) [nM] | other results |
| --- | --- | --- | --- |
| CN(C)CCC(c1ccc(Cl)cc1)c1ccccn1 (stereo not shown) [CTM, chlorpheniramine] | – | – | effect on baseline Evans blue leakage (dye leakage due to i.d. saline administration) [1]: Neither CTM (1.0 mg/kg, i.v.), THIO (1.0 mg/kg, i.v.) nor CLOB (0.3 mg/kg, i.v.) had any effect; % Inhibition of Compound 48/80 Skin Responses ([1]; cpd 48/80 0.0003% i.d.): 17%±4% and 17.3 ± 3.6%; % Inhibition of Compound 48/80 Skin Responses ([1]; cpd 48/80 0.001% i.d.): 31%±4% and 31.5 ± 3.7 %; % Inhibition of Compound 48/80 Skin Responses ([1]; cpd 48/80 0.003% i.d.): 32%±4% and 31.8 ± 3.8 %; % Inhibition of Compound 48/80 Skin Responses ([1]; cpd 48/80 0.01% i.d.): 37%±4% and 36.7 ± 3.8 % |
| NC(=NCc1ccc(Cl)cc1)SCCCc1cnc[nH]1 [Clobenpropit, clobenpropit] | – | – | effect on baseline Evans blue leakage (dye leakage due to i.d. saline administration) [1]: Neither CTM (1.0 mg/kg, i.v.), THIO (1.0 mg/kg, i.v.) nor CLOB (0.3 mg/kg, i.v.) had any effect; effect of H3 antagonist alone on cutaneous permeability elicited by compound 48/80 ([1]; listed as CLOB): no observable effect; effect of H3 antagonist alone on cutaneous permeability elicited by compound 48/80 ([1]; listed as clobenpropit): does not alter |
| O=C(c1cnc2ccccc2c1)N1CCC(Cc2c[nH]cn2)CC1 [Formula 17] | 55 | – | – |
| O=C(c1ccccn1)N1CCC(Cc2c[nH]cn2)CC1 [Formula 18] | 2 | – | – |
| CC(C)(C)CCC#C[C@@H]1C[C@H]1c1c[nH]cn1 [Formula 19] | 3 | – | – |
| O=C(CCN1CCC(Cc2c[nH]cn2)CC1)Nc1cccc(Cl)c1 [Formula 20] | 0.8 | 330 | – |
| O=S(=O)(c1ccc(Cl)cc1)N1CCC(CCc2c[nH]cn2)C1 (stereo not shown) [Formula 21] | 6 | 660 | – |
| c1nc(CC2CCN(CCCOc3ccc(CN4CCCCC4)cc3)CC2)c[nH]1 [Formula 22] | 3 | 29 | – |
| O=C(CCN1CCC(Cc2c[nH]cn2)CC1)NCCc1ccc(Cl)cc1 [Formula 23] | 0.7 | – | – |
| O=C(NCc1ccc(Cc2c[nH]cn2)cc1)Nc1cc(Cl)cc(Cl)c1 [Formula 24] | 15 | – | – |
| CN1CCC(N(C)Cc2ccc(OCCCN3CCC(Cc4c[nH]cn4)CC3)cc2)CC1 [Formula 25] | 4 | – | – |
| Clc1ccc(C(=C2CCN(CCCCc3c[nH]cn3)CC2)c2ccccn2)cc1 [Formula 26] | 3 | 2 | – |
| c1ccc2c(c1)C1CC(CNCCCCc3c[nH]cn3)C2c2ccccc21 (stereo not shown) [Formula 27] | 19 | – | – |
| Clc1ccc(C(CCNCCCCc2c[nH]cn2)c2ccccn2)cc1 (stereo not shown) [Formula 28] | 10 | 310 | – |
| Clc1ccc(C(=C2CCN(CCCCCc3c[nH]cn3)CC2)c2ccccn2)cc1 [Formula 29] | 8 | 5 | – |
| CC(C)(C)c1ccc(S(=O)(=O)NCCCCc2c[nH]cn2)cc1 [Formula 30] | 17 | – | – |
| C/C(=C\C(=O)Nc1ccc(Cl)cc1)c1ccc(Cc2c[nH]cn2)cc1 [Formula 31] | 470 | – | – |
| O=C(NCCCCc1c[nH]cn1)C1(c2ccc(Cl)cc2)CCC1 [Formula 32] | 19 | – | – |
| O=C(/C=C/c1ccc(Cc2c[nH]cn2)cc1)NCCc1ccc(Cl)cc1 [Formula 33] | 7 | – | – |
| S=C(NC1CCCCC1)N1CCC(c2cnc[nH]2)CC1 [Thioperamide, thioperamide] | – | – | effect on baseline Evans blue leakage (dye leakage due to i.d. saline administration) [1]: Neither CTM (1.0 mg/kg, i.v.), THIO (1.0 mg/kg, i.v.) nor CLOB (0.3 mg/kg, i.v.) had any effect; effect of H3 antagonist alone on cutaneous permeability elicited by compound 48/80 ([1]; listed as THIO): no observable effect; effect of H3 antagonist alone on cutaneous permeability elicited by compound 48/80 ([1]; listed as thioperamide): does not alter |
